In the NIST ThermoML archive (doi:10.1021/je5004719):

Assay: xn = mol fraction of the nth substance listed
Conditions: 101 kPa, Liquid; for speed of sound: Sing-around technique in a fixed-path interferometer; for mass density: Vibrating tube method

Cc1ccccc1C [1,2-dimethylbenzene] + C1CCOCC1
Conditions	mass density, 298.15 K [kg/m3]	mass density, 303.15 K [kg/m3]	speed of sound, 298.15 K [m/s]	speed of sound, 303.15 K [m/s]
x2 = 0.0908	876.43	872.06	1345.3	1323.7
x2 = 0.1432	876.68	872.25	1343.1	1321
x2 = 0.1897	876.87	872.4	1340.4	1317.9
x2 = 0.2318	877.04	872.53	1337.4	1314.7
x2 = 0.2953	877.26	872.71	1332.1	1309.2
x2 = 0.331	877.39	872.81	1328.8	1305.9
x2 = 0.3872	877.57	872.95	1323.2	1300.4
x2 = 0.4287	877.7	873.05	1319	1296.2
x2 = 0.4792	877.86	873.17	1313.7	1291
x2 = 0.5187	877.99	873.26	1309.6	1286.9
x2 = 0.5725	878.16	873.38	1304.1	1281.4
x2 = 0.6182	878.31	873.48	1299.5	1276.8
x2 = 0.6682	878.47	873.58	1294.6	1272
x2 = 0.7187	878.62	873.67	1290	1267.3
x2 = 0.7729	878.78	873.77	1285.3	1262.5
x2 = 0.8367	878.94	873.86	1280.2	1257.3
x2 = 0.8952	879.05	873.93	1276.1	1253.1
x2 = 0.9274	879.1	873.96	1274	1251

Cc1ccccc1Cl [2-chlorotoluene] + Cc1ccccc1
Conditions	mass density, 298.15 K [kg/m3]	mass density, 303.15 K [kg/m3]	mass density, 308.15 K [kg/m3]	speed of sound, 298.15 K [m/s]	speed of sound, 303.15 K [m/s]	speed of sound, 308.15 K [m/s]
x1 = 0.0935	884.2	879.51	874.8	1302	1281.3	1260.6
x1 = 0.1346	893.74	889.04	884.33	1301.2	1280.6	1260.2
x1 = 0.1681	901.47	896.76	892.04	1300.5	1280.2	1259.9
x1 = 0.2393	917.7	912.99	908.26	1299.5	1279.4	1259.3
x1 = 0.2782	926.47	921.75	917.02	1299	1279	1259
x1 = 0.3342	938.97	934.25	929.51	1298.5	1278.7	1258.8
x1 = 0.3871	950.65	945.92	941.17	1298.1	1278.5	1258.7
x1 = 0.4375	961.66	956.92	952.17	1297.9	1278.3	1258.7
x1 = 0.4872	972.41	967.66	962.89	1297.7	1278.3	1258.8
x1 = 0.5312	981.84	977.07	972.3	1297.6	1278.3	1259
x1 = 0.5912	994.55	989.78	984.99	1297.4	1278.4	1259.3
x1 = 0.6218	1001	996.2	991.4	1297.4	1278.5	1259.5
x1 = 0.6753	1012.1	1007.3	1002.5	1297.4	1278.7	1260
x1 = 0.7231	1022	1017.2	1012.3	1297.4	1278.9	1260.4
x1 = 0.7854	1034.7	1029.9	1025	1297.6	1279.2	1261
x1 = 0.8351	1044.7	1039.9	1035	1297.7	1279.5	1261.5
x1 = 0.8824	1054.2	1049.3	1044.5	1297.9	1279.8	1262
x1 = 0.9231	1062.3	1057.4	1052.5	1298.1	1280.1	1262.3

Cc1ccccc1Cl [2-chlorotoluene] + Cc1ccccc1C
Conditions	mass density, 298.15 K [kg/m3]	mass density, 303.15 K [kg/m3]	mass density, 308.15 K [kg/m3]	speed of sound, 298.15 K [m/s]	speed of sound, 303.15 K [m/s]	speed of sound, 308.15 K [m/s]
x1 = 0.0872	893.06	888.78	884.5	1341.6	1321.9	1302.1
x1 = 0.1276	901.04	896.73	892.42	1339.4	1319.8	1300.2
x1 = 0.1754	910.51	906.16	901.82	1337	1317.4	1298
x1 = 0.2243	920.22	915.84	911.46	1334.4	1315	1295.6
x1 = 0.2765	930.61	926.19	921.78	1331.8	1312.4	1293.1
x1 = 0.3241	940.11	935.66	931.22	1329.4	1310.1	1290.8
x1 = 0.3762	950.54	946.05	941.57	1326.8	1307.6	1288.4
x1 = 0.4216	959.64	955.13	950.62	1324.6	1305.4	1286.3
x1 = 0.4932	974.04	969.48	964.92	1321.2	1302.1	1283.1
x1 = 0.5243	980.31	975.73	971.15	1319.7	1300.7	1281.8
x1 = 0.5721	989.96	985.35	980.74	1317.5	1298.6	1279.8
x1 = 0.6158	998.81	994.17	989.52	1315.5	1296.7	1278
x1 = 0.6761	1011	1006.4	1001.7	1312.7	1294.1	1275.6
x1 = 0.7245	1020.9	1016.2	1011.4	1310.6	1292.1	1273.7
x1 = 0.7865	1033.5	1028.8	1024	1307.8	1289.6	1271.3
x1 = 0.8254	1041.5	1036.7	1031.9	1306.1	1288	1269.8
x1 = 0.8795	1052.5	1047.7	1042.9	1303.8	1285.8	1267.7
x1 = 0.9192	1060.7	1055.9	1051	1302.1	1284.1	1266.1

C1CCOCC1 [tetrahydropyran] + Cc1ccccc1
Conditions	mass density, 298.15 K [kg/m3]	mass density, 303.15 K [kg/m3]	speed of sound, 298.15 K [m/s]	speed of sound, 303.15 K [m/s]
x1 = 0.0834	863.93	859.19	1303.2	1281.1
x1 = 0.1245	864.77	859.99	1302.3	1280
x1 = 0.1765	865.79	860.99	1301.2	1278.7
x1 = 0.2387	866.99	862.15	1299.7	1277.1
x1 = 0.3017	868.16	863.3	1298.1	1275.3
x1 = 0.3541	869.11	864.23	1296.6	1273.8
x1 = 0.4098	870.1	865.2	1295	1272.2
x1 = 0.4467	870.74	865.83	1293.9	1271
x1 = 0.4915	871.51	866.59	1292.5	1269.5
x1 = 0.5487	872.47	867.53	1290.6	1267.5
x1 = 0.6008	873.33	868.36	1288.8	1265.6
x1 = 0.6472	874.08	869.09	1287.1	1263.7
x1 = 0.6954	874.84	869.83	1285.2	1261.8
x1 = 0.7321	875.41	870.38	1283.7	1260.2
x1 = 0.7832	876.18	871.13	1281.5	1257.9
x1 = 0.8241	876.78	871.71	1279.6	1255.9
x1 = 0.8937	877.76	872.65	1276.1	1252.5
x1 = 0.9205	878.12	873	1274.6	1251.1
